From ChEMBL document CHEMBL1126166, “Synthesis of the -phosphonic acid analogue of kainic acid” (Bioorg Med Chem Lett, 1992) come the findings set out here.

The target in the assay is Glutamate receptor ionotropic, kainate (Rattus norvegicus) (UniProt P22756+Q01812+P42260+P42264+Q63273). Description: Compound was evaluated for the inhibition of kainate receptor binding at 10 uM. It is filed as protein-complex assay.

Consider `C=C(C)[C@H]1CN[C@H](C(=O)O)[C@H]1CP(=O)(O)O`, for which the inhibition was determined as 77%.
